The values that follow come from US20090137572A1, “2-substituted-4-heteroaryl-pyrimidines useful for the treatment of proliferative disorders” (priority 2004, published 2009).

Data set [1] concerns the target CDK2-cycline E (Homo sapiens, UniProt P24941). The experiment in a line: Kinase assay (radioactive phosphate incorporation), CDK2-cyclin E. It counts as biochemical. Particulars: read-out: Kinase Inhibition pIC50 CDK2-cycline E (converted). Summed up:
(§1)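 Inhibition measured as 32P transfer from ATP (100 μM, 15 mM MgCl2) onto peptide substrates at 30° C. Each assay used 2-4 μg active recombinant enzyme in pH 7.4 buffer. Reactions stopped on ice, filtered, acid-washed and counted; compounds diluted into 10% DMSO in assay buffer.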

Data set [2] addresses GSK3b (Homo sapiens, UniProt P49841). Kind of data set: Kinase assay (radioactive phosphate incorporation), GSK-3b. It counts as biochemical. The following applies: read-out: Kinase Inhibition pIC50 GSK-3b (converted). How it is done: (§2) Kinase assays. The compounds of the invention above were investigated for their ability to inhibit the enzymatic activity of various protein kinases (Table 2). This was achieved by measurement of incorporation of radioactive phosphate from ATP into appropriate polypeptide substrates. Recombinant protein kinases and kinase complexes were produced or obtained commercially. Assays were performed using 96-well plates and appropriate assay buffers (typically 25 mM β-glycerophosphate, 20 mM MOPS, 5 mM EGTA, 1 mM DTT, 1 mM […], pH 7.4), into which were added 2-4 μg of active enzyme with appropriate substrates. The reactions were initiated by addition of Mg/ATP mix (15 mM MgCl2+100 μM ATP with 30-50 kBq per well of [γ-^32P]-ATP) and mixtures incubated as required at 30° C. Reactions were stopped on ice, followed by filtration through p81 filterplates or GF/C filterplates (Whatman Polyfiltronics, Kent, UK). After washing 3 times with 75 mM aq orthophosphoric acid, plates were dried, scintillant added and incorporated radioactivity measured in a scintillation counter (TopCount, Packard Instruments, Pangbourne, Berks, UK). Compounds for kinase assay were made up as 10 mM stocks in DMSO and diluted into 10% DMSO in assay buffer.

In data set [3] the target is CDK4-cyclin D1 (Homo sapiens, UniProt P11802). The experiment in a line: Kinase assay (radioactive phosphate incorporation), CDK4-cyclin D1. The class given is biochemical. Particulars: read-out: Kinase Inhibition pIC50 CDK4-cyclin D1 (converted). As for the experimental part: as §2
Chain of CDK4-cyclin D1 (P11802 whole entry): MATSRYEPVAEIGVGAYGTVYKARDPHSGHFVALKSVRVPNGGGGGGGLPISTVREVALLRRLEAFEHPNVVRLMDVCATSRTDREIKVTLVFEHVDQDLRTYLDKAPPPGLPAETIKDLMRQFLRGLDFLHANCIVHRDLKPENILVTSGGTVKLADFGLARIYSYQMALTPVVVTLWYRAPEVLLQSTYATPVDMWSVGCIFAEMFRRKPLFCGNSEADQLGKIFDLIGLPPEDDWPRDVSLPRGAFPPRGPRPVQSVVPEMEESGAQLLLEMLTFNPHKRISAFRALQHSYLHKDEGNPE
Chain of CDK4-cyclin D1 (P24385 whole entry partner): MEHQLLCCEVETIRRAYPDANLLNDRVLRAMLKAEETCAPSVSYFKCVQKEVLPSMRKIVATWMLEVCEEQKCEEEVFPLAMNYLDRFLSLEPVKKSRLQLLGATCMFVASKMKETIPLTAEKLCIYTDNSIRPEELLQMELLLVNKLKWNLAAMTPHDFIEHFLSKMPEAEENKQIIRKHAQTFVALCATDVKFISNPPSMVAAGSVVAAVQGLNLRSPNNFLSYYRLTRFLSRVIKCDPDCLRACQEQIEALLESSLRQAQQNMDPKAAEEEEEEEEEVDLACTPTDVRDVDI
The target in data set [4] is CDK9/cyclin T1 (Homo sapiens, UniProt P50750). The experiment in a line: CDK 9 assay (CTD peptide substrate). The following applies: read-out: Kinase Inhibition pIC50 CDK9-cyclin T1 (converted). The class given is biochemical. Summed up: (§3)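 32P transfer from 100 μM ATP (trace [γ-32P]ATP) to a biotinyl CTD (YSPTSPS)4 peptide was measured after 45 min at 30 °C in pH 7.2 MOPS buffer, 15 mM MgCl2, using recombinant human CDK7/cyclin H or CDK9/cyclin T1. Signal read by filter binding and scintillation counting.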
Chain of CDK9/cyclin T1 (P50750 whole entry): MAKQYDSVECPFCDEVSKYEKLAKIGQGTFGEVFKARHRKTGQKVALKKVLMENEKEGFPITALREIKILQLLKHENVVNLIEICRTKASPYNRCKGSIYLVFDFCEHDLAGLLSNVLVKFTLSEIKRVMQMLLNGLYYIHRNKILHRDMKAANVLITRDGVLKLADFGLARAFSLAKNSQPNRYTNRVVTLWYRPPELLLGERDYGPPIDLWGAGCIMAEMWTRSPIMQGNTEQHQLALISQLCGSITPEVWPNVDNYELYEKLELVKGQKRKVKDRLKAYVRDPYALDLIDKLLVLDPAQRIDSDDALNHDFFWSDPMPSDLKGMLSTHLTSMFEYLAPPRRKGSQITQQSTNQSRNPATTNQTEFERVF
Chain of CDK9/cyclin T1 (O60563 whole entry partner): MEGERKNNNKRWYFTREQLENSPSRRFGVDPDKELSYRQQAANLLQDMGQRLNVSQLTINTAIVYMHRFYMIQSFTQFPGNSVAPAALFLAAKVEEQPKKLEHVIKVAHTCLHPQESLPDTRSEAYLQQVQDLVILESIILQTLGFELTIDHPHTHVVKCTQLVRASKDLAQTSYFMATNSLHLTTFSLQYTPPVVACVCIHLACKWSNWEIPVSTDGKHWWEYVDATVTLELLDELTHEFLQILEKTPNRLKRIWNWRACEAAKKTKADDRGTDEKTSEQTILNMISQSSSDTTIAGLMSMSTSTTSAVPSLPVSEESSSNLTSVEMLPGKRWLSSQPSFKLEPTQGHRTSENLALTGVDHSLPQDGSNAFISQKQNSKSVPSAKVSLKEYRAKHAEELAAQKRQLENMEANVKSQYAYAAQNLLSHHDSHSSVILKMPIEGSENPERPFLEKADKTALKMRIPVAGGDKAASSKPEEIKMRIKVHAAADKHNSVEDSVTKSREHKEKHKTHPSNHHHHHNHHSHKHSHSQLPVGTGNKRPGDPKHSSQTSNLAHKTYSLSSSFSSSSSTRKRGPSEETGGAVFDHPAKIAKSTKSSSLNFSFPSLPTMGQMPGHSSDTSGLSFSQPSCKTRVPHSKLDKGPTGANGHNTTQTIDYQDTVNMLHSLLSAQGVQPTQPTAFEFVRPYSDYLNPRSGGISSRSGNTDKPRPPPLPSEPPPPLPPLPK

Data set [5] addresses CDK7/cyclin H (Homo sapiens, UniProt P50613). Kind of data set: CDK 7 assay (CTD peptide substrate). The class given is biochemical. Particulars: read-out: Kinase Inhibition pIC50 CDK7-cyclin H (converted). Summed up:
as §3

The target of data set [6] is CDK1-cyclin B (Homo sapiens, UniProt P06493). The experiment in a line: Kinase assay (radioactive phosphate incorporation), CDK1-cyclin B. The class given is biochemical. Particulars: read-out: Kinase Inhibition pIC50 CDK1-cyclin B (converted). As for the experimental part:
as §2

Data set [7] addresses T1, Flt3 (FMS-like tyrosine kinase-3) (Homo sapiens, UniProt P36888).
T1 sequence (P36888 27-993): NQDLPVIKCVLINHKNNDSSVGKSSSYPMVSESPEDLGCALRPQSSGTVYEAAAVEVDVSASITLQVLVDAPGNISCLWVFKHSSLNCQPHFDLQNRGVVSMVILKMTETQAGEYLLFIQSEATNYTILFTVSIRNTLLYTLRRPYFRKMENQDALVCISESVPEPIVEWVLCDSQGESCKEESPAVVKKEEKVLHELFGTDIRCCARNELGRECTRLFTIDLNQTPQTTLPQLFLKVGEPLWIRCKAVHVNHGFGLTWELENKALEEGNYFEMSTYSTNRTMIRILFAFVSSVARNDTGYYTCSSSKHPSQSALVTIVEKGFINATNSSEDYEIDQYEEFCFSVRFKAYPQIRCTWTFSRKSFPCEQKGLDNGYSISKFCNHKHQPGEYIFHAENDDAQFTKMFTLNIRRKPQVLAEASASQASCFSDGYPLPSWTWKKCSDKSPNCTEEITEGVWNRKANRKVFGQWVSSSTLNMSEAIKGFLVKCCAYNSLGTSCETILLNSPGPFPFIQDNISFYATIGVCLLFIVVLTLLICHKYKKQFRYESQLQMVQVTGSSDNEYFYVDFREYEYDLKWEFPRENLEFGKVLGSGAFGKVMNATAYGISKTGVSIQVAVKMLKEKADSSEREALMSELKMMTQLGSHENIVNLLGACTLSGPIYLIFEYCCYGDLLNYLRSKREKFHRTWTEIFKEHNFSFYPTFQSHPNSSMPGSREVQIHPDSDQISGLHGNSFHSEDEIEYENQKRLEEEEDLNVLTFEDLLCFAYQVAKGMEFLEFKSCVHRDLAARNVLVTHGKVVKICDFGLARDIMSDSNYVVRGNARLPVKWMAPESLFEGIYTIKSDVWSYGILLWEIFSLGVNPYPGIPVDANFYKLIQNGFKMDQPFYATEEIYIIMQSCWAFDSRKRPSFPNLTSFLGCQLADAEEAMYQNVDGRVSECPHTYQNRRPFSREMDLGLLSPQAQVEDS
The experiment in a line: Kinase assay (radioactive phosphate incorporation), Flt3. It counts as biochemical. The following applies: pIC50 is -log(IC50, M), read-out: Kinase Inhibition pIC50 Flt3 (converted). An outline of the steps:
as §1

Data set [8] concerns the target T2, Aurora A kinase (Homo sapiens, UniProt O14965).
T2 construct: purchased
T2 sequence (O14965 1-403): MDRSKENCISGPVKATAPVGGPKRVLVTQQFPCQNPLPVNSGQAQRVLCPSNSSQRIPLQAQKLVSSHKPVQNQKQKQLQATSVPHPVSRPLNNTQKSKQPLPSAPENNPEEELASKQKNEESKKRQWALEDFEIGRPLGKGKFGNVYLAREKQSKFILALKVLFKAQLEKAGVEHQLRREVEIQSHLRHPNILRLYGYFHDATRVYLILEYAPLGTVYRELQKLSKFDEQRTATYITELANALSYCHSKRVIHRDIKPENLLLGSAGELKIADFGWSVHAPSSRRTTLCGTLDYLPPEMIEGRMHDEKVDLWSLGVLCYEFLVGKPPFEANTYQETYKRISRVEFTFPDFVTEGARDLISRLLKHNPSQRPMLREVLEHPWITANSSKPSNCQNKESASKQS
Kind of data set: Aurora-A (human) kinase assay (Kemptide substrate). The following applies: pIC50 is -log(IC50, M); 15 μM ATP; read-out: Kinase Inhibition pIC50 Aurora A kinase (converted). The class given is biochemical. An outline of the steps: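 Kemptide (LRRASLG, 200 μM) phosphorylation by 5-10 ng commercial aurora-A measured as [γ-33P] incorporation at 15 μM ATP with 10 mM Mg acetate, pH 7.0 MOPS buffer. Reaction ran 40 min at room temperature; acid-stopped, captured on P81 filters, scintillation read.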

Data set [9] deals with CDK2-cyclin A (Homo sapiens, UniProt P24941). The experiment in a line: Kinase assay (radioactive phosphate incorporation), CDK2-cyclin A. The class given is biochemical. Particulars: read-out: Kinase Inhibition pIC50 CDK2-cyclin A (converted). As for the experimental part:
as §2

Chain of GSK3b (P49841 whole entry, species assumed): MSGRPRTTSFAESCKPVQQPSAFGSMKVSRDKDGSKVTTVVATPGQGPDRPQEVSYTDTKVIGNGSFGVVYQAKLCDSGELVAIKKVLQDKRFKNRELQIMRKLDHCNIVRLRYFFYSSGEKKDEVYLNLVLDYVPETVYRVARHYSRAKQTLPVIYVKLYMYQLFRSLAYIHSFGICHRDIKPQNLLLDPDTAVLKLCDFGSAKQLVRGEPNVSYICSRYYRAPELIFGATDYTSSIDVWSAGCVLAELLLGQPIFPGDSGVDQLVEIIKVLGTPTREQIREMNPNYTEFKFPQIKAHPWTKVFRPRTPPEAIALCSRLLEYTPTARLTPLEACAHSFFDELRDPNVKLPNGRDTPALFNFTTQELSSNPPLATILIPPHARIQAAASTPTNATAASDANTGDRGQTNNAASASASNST
Chain of CDK1-cyclin B (P06493 whole entry): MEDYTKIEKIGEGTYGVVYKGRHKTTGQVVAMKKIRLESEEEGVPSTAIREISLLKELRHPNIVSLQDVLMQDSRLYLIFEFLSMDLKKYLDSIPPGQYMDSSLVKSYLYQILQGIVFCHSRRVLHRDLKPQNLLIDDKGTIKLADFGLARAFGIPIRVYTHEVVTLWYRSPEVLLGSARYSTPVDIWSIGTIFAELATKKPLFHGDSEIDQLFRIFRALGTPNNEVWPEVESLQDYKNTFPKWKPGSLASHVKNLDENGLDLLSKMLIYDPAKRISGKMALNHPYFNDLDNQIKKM
Chain of CDK1-cyclin B (P14635 whole entry partner): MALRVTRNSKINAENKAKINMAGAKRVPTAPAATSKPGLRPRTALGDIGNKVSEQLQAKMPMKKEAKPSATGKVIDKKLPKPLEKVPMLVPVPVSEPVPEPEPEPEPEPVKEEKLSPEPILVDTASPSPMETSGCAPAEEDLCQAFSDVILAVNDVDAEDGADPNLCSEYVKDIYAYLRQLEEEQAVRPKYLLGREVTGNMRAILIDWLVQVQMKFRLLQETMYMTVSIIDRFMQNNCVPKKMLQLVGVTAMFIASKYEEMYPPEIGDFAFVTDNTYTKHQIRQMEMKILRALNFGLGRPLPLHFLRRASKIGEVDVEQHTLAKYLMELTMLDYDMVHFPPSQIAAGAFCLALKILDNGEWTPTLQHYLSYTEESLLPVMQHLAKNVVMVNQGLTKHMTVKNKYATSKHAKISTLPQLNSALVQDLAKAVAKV
Chain of CDK7/cyclin H (P50613 whole entry): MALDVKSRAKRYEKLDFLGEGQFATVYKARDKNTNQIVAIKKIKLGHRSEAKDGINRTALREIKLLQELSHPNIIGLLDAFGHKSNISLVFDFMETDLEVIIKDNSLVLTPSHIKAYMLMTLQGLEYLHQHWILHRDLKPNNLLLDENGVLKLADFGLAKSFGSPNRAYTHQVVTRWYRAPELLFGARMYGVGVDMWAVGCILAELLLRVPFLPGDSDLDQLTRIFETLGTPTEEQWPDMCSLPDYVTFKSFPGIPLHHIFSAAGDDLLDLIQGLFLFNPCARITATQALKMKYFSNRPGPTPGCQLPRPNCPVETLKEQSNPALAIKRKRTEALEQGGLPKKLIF
Chain of CDK7/cyclin H (P51946 whole entry partner): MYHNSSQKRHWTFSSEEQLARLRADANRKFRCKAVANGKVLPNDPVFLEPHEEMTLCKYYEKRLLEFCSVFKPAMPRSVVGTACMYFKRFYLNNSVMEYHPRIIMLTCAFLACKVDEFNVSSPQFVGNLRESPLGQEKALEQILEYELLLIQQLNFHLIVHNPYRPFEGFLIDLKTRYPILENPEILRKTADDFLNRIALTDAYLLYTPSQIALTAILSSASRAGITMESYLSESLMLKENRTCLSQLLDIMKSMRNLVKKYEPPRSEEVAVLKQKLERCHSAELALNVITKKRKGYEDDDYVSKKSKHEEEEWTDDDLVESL

Take `Cc1ccc(Nc2nccc(-c3sc(NC(C)(C)C)nc3C)n2)cc1[N+](=O)[O-]` [Compound 2, [4-(2-tert-Butylamino-4-methyl-thiazol-5-yl)-pyrimidin-2-yl]-(4-methyl-3-nitro-phenyl)-amine]: the IC50 in data set [1] was 1.58 µM; in [2], 0.631 µM; in data set [3], 0.316 µM; in data set [4] it was 0.316 µM; in data set [5], 0.794 µM; in [6], 1.26 µM.
Regarding `CNc1nc(C)c(-c2ccnc(Nc3cccc(N4CCN(C(C)=O)CC4)c3)n2)s1` [Compound 3, 1-(4-{3-[4-(4-Methyl-2-methylamino-thiazol-5-yl)-pyrimidin-2-ylamino]-phenyl}-piperazin-1-yl)-ethanone], the IC50 is 0.02 µM in data set [7]; 0.02 µM in [8]; 5.01 µM in [2]; 3.16 µM in data set [3]; 2 µM in [5].
For `CNc1nc(C)c(-c2ccnc(Nc3cc(OC)c(OC)c(OC)c3)n2)s1` [Compound 23, [4-(4-Methyl-2-methylamino-thiazol-5-yl)-pyrimidin-2-yl]-(3,4,5-trimethoxy-phenyl)-amine], the IC50 in data set [8] was 0.00398 µM; in data set [2], 0.794 µM; in data set [3], 2 µM; in [4], 0.02 µM; in data set [5], 0.794 µM; in data set [6], 1 µM.
`CC(=O)N1CCN(c2cccc(Nc3nccc(-c4sc(C)nc4C)n3)c2)CC1` [Compound 46, 1-(4-{3-[4-(2,4-Dimethyl-thiazol-5-yl)-pyrimidin-2-ylamino]-phenyl}-piperazin-1-yl)-ethanone]: the IC50 in data set [7] is 0.2 µM; in data set [2], 3.16 µM; in data set [4], 1 µM; in data set [5], 5.01 µM; in [6] it was 12.6 µM.
As to `Cc1nc(NC(C)(C)C)sc1-c1ccnc(Nc2cccc([N+](=O)[O-])c2)n1` [Compound 51, [4-(2-tert-Butylamino-4-methyl-thiazol-5-yl)-pyrimidin-2-yl]-(3-nitro-phenyl)-amine], the IC50 in data set [1] was 0.631 µM; in data set [8] it was 0.1 µM; in data set [2], 0.631 µM; in data set [3] it was 0.631 µM; in data set [6] it was 1.58 µM.
Turning to `CNc1nc(C)c(-c2ccnc(Nc3cccc(S(=O)(=O)NCCOC)c3)n2)s1` [Compound 54, N-(2-Methoxy-ethyl)-3-[4-(4-methyl-2-methylamino-thiazol-5-yl)-pyrimidin-2-ylamino]-benzenesulfonamide], the melting point (as a rule, the temperature of the solid-liquid transition) fell in the range of 205 to 206 °C. In addition, in [1], the IC50 is 0.1 µM. For the same compound, in [7], the IC50 is 0.251 µM. The IC50 in data set [8] is 0.0251 µM. Further, the IC50 in data set [2] is 0.631 µM. In [3], the IC50 is 0.251 µM. In data set [4], the IC50 was 0.0398 µM. In addition, in data set [5], the IC50 is 0.794 µM.
`CCNS(=O)(=O)c1ccc(Nc2nccc(-c3sc(C)nc3C)n2)cc1` [Compound 66, 4-[4-(2,4-Dimethyl-thiazol-5-yl)-pyrimidin-2-ylamino]-N-ethyl-benzenesulfonamide]: the IC50 in data set [9] was 0.0501 µM; in [1], 0.0631 µM; in data set [8], 0.316 µM.
`CCNc1nc(C)c(-c2ccnc(Nc3cccc(S(=O)(=O)NC(C)C)c3)n2)s1` [Compound 70, 3-[4-(2-Ethylamino-4-methyl-thiazol-5-yl)-pyrimidin-2-ylamino]-N-isopropyl-benzenesulfonamide]: the IC50 in [8] is 1 µM; in data set [2] it was 5.01 µM; in data set [3] it was 0.158 µM; in [4], 0.1 µM.
Take `Cc1nc(C)c(-c2ccnc(Nc3ccc(S(=O)(=O)NCc4ccccc4)cc3)n2)s1` [Compound 74, N-Benzyl-4-[4-(2,4-dimethyl-thiazol-5-yl)-pyrimidin-2-ylamino]-benzenesulfonamide]: the figures for the IC50 in data set [9], in [1] and in [8] were 2 µM, 0.398 µM and 0.126 µM, respectively.
Take `Cc1nc(N)sc1-c1ccnc(Nc2cccc(S(=O)(=O)N3CCOCC3)c2)n1` [Compound 81, [4-(2-Amino-4-methyl-thiazol-5-yl)-pyrimidin-2-yl]-[3-(morpholine-4-sulfonyl)-phenyl]-amine]: the melting point was 215 to 216 °C. Also, the IC50 in data set [1] is 3.16 µM. In addition, in data set [8], the IC50 was 3.16 µM. The IC50 in data set [2] was 0.0251 µM. In addition, the IC50 in data set [5] is 6.31 µM.
Regarding `Cc1nc(C)c(-c2ccnc(Nc3ccc(C)c(S(=O)(=O)N4CCOCC4)c3)n2)s1` [Compound 82, [4-(2,4-Dimethyl-thiazol-5-yl)-pyrimidin-2-yl]-[4-methyl-3-(morpholine-4-sulfonyl)-phenyl]-amine], the melting point was 81 to 83 °C. In addition, the IC50 in data set [1] is 3.98 µM. Besides, the IC50 in [8] is 3.16 µM. For the same compound, the IC50 in [2] is 3.16 µM. Further, the IC50 in data set [4] is 0.398 µM. The IC50 in data set [5] is 3.98 µM.
On to `CC(=O)NCc1cccc(Nc2nccc(-c3sc(-c4cccnc4)nc3C)n2)c1` [Compound 101, N-{3-[4-(4-Methyl-2-pyridin-3-yl-thiazol-5-yl)-pyrimidin-2-ylamino]-benzyl}-acetamide], for which the IC50 in [1] is 1.26 µM; in [7], 0.316 µM; in data set [8] it was 0.126 µM; in data set [2], 7.94 µM; in [3], 3.98 µM; in [4], 5.01 µM. The IC50 in data set [5] was 3.98 µM; in [6] it was 3.16 µM.
